From patent US20100081630A1, “Heparin Compositions and Selectin Inhibition” (University of California, priority 2005, published 2010)

How the values were obtained:
[1] = Plasma anti-Xa levels after subcutaneous heparin dosing; assay type: in vivo; conditions: mice
Description: Anti-Xa levels were measured in plasma from multiple mice, 30 min after each mouse received a single “1×” or “3×” subcutaneous dose of various heparins. Each open circle represents one mouse and horizontal bars represent mean values.
Titrating Heparin Dosage via Plasma Anti-Xa Levels: Mice were injected subcutaneously with 100 ul of UFH, TINZ, or FOND diluted in PBS, at various final concentrations. Thirty minutes later, blood was collected by cardiac puncture into 1 cc syringe containing 30 ul 10 mM EDTA. Samples were centrifuged twice at 2,000 rcf at 24° C. to collect the plasma, which was stored at −80° C. until analysis for anti-Xa activity. […] The resulting chromophore was measured at 405 nm. Plasma heparin levels were calculated in anti-Xa units/ml by comparing against a standard curve of heparin-spiked mouse plasma samples. Standards and samples were analyzed in triplicate. […]
Pharmacokinetic Studies in Mice to Normalize Heparin Dosing. […] Therapeutic levels for patients treated with heparin for venous thromboembolism are ˜1 anti-factor Xa unit/ml for LMWHs, typically measured at 3-4 hours after injection. […] Plasma anti-Xa levels were analyzed 30 minutes after subcutaneous delivery, which is when the tumor cells would be injected into the vasculature in the planned metastasis experiments. […] Single heparin doses were increased from “1×” to “3×” dosing, and analyzed the anti-Xa levels (FIG. 2B). […]

B16F1 cells = experiment: Melanoma experimental metastasis assay; assay type: in vivo, mouse; conditions: 1× dose s.c. 30 min before i.v. B16F1 cells; day 17
Description: FIG. 4 depicts heparins with selectin-inhibitory activity that inhibit metastasis of melanoma cells. Mice were injected subcutaneously with “1×” heparin (A) or “3×” heparin (B) (or PBS as a control), and 30 minutes later were injected intravenously with B16F1 cells. After 17 days, mice were euthanized, lungs perfused with formalin through the trachea and then allowed to fix in formalin for a minimum of 24 hours. Metastasis was quantified by measuring lung weight, which correlated well with the physical appearance of the lungs, documented by photography (representative pictures are shown below quantification). Open circles each represent one mouse and horizontal bars represent mean lung weights. P-values were determined by a Student's T-test, assuming two-tailed, unequal distribution.
Melanoma Experimental Metastasis Assay: Mice were injected with heparin and 500,000 B16F1 cells using the protocol described for the carcinoma metastasis assay. […] Lung weights were determined by removing the lungs from formalin, briefly setting them on filter paper to remove excess liquid, and then weighing them on a Sartorius analytical scale.
Heparin Inhibition of Melanoma Metastasis is Also Dependent on Selectin-Inhibitory Activity. […] Seventeen days following injection, the lungs were excised and evaluated for the presence of metastatic foci. […]

[2] = incorporated into liposomes; cited from earlier work
tumor cells = conditions: cited from earlier work
[3] = hirudin 10 mg/kg, at the time of tumor cell injection; almost all above limits of detection; cited from earlier work

Compound: CO[C@H]1O[C@H](COS(=O)(=O)O)[C@@H](O[C@@H]2O[C@@H](C(=O)O)[C@@H](O[C@H]3O[C@H](COS(=O)(=O)O)[C@@H](O[C@@H]4O[C@H](C(=O)O)[C@@H](O[C@H]5O[C@H](COS(=O)(=O)O)[C@@H](O)[C@H](O)[C@H]5NS(=O)(=O)O)[C@H](O)[C@H]4O)[C@H](OS(=O)(=O)O)[C@H]3NS(=O)(=O)O)[C@H](O)[C@H]2OS(=O)(=O)O)[C@H](O)[C@H]1NS(=O)(=O)O [FOND, Fondaparinux]
- mean plasma anti-Xa level ([1]; 30 min after single subcutaneous 1× dose, range meant: therapeutic ~1 anti-factor Xa unit/ml): within this range
- plasma anti-Xa level ([1]; 30 min after single subcutaneous 3× dose): at or above the accepted range for clinical anticoagulation
- metastasis (lung weight) (B16F1 cells): no effect

Compound: CCCCCCCCCCCCCCCC(=O)OCn1ccnc1 [PMI, 1-(palmitoyloxymethyl)imidazole]
- apparent pKa [2]: 5.12

Compound: hirudin
- pulmonary arrest of tumor cells (tumor cells; hirudin 10 mg/kg twenty minutes prior to tumor cell injection): decreased pulmonary arrest of tumor cells
- formation of metastatic foci (tumor cells; hirudin 20 mg/kg before, 4 h after, then every other day for 10 days, i.v. tumor cells): significant decrease in formation of metastatic foci
- clotting time in activated partial thromboplastin time test [3]: > 300 s
